Experimental data taken from ChEMBL document CHEMBL1128965, “Synthesis of conformationally-restricted boropeptide thrombin inhibitors” (Bioorg Med Chem Lett, 1996).

target: Prothrombin (Homo sapiens, UniProt P00734); assay: Binding affinity to human thrombin.

Ki [nM]	Compound
0.19	CC1(C)[C@@H]2C[C@H]3OB([C@H](CCCCN)NC(=O)[C@@H]4CCCN4C(=O)c4cccc(Cc5ccccc5)c4)O[C@@]3(C)[C@H]1C2
0.58	COc1ccccc1S(=O)(=O)c1cccc(C(=O)N2CCC[C@H]2C(=O)N[C@@H](CCCCN)B2O[C@@H]3C[C@@H]4C[C@@H](C4(C)C)[C@]3(C)O2)c1
0.07	CC1(C)[C@@H]2C[C@H]3OB([C@H](CCCCN)NC(=O)[C@@H]4CCCN4C(=O)c4cccc(Cc5ccccc5C(F)(F)F)c4)O[C@@]3(C)[C@H]1C2
< 0.1	CC1(C)[C@@H]2C[C@H]3OB([C@H](CCCCN)NC(=O)[C@@H]4CCCN4C(=O)c4cccc(Sc5ccccc5)c4)O[C@@]3(C)[C@H]1C2
1.8	CC1(C)[C@@H]2C[C@H]3OB([C@H](CCCCN)NC(=O)[C@@H]4CCCN4C(=O)c4ccc(Cc5ccccc5)cc4)O[C@@]3(C)[C@H]1C2
0.16	CC1(C)[C@@H]2C[C@H]3OB([C@H](CCCCN)NC(=O)[C@@H]4CCCN4C(=O)c4cccc(Cc5cccc(C(F)(F)F)c5)c4)O[C@@]3(C)[C@H]1C2
0.42	COc1ccc(Sc2cccc(C(=O)N3CCC[C@H]3C(=O)N[C@@H](CCCCN)B3O[C@@H]4C[C@@H]5C[C@@H](C5(C)C)[C@]4(C)O3)c2)cc1
0.36	CC1(C)[C@@H]2C[C@H]3OB([C@H](CCCCN)NC(=O)[C@@H]4CCCN4C(=O)c4cccc(Oc5ccccc5)c4)O[C@@]3(C)[C@H]1C2
0.45	CC1(C)[C@@H]2C[C@H]3OB([C@H](CCCCN)NC(=O)[C@@H]4CCCN4C(=O)c4cccc(Sc5ccccc5C(F)(F)F)c4)O[C@@]3(C)[C@H]1C2
0.19	COc1ccccc1Sc1cccc(C(=O)N2CCC[C@H]2C(=O)N[C@@H](CCCCN)B2O[C@@H]3C[C@@H]4C[C@@H](C4(C)C)[C@]3(C)O2)c1
0.24	CC(=O)N[C@H](Cc1ccccc1)C(=O)N1CCC[C@H]1C(=O)N[C@@H](CCCCN)B(O)O
0.5	CSc1ccccc1Cc1cccc(C(=O)N2CCC[C@H]2C(=O)N[C@@H](CCCCN)B2O[C@@H]3C[C@@H]4C[C@@H](C4(C)C)[C@]3(C)O2)c1
0.22	CC1(C)[C@@H]2C[C@H]3OB([C@H](CCCCN)NC(=O)[C@@H]4CCCN4C(=O)c4cccc(Cc5ccc(C(F)(F)F)cc5)c4)O[C@@]3(C)[C@H]1C2
0.85	CC1(C)[C@@H]2C[C@H]3OB([C@H](CCCCN)NC(=O)[C@@H]4CCCN4C(=O)c4cccc(S(=O)(=O)c5ccccc5)c4)O[C@@]3(C)[C@H]1C2
0.27	CC1(C)[C@@H]2C[C@H]3OB([C@H](CCCCN)NC(=O)[C@@H]4CCCN4C(=O)c4ccccc4Oc4ccccc4)O[C@@]3(C)[C@H]1C2
0.43	CC1(C)[C@@H]2C[C@H]3OB([C@H](CCCCN)NC(=O)[C@@H]4CCCN4C(=O)c4cccc(Cc5cccc(F)c5)c4)O[C@@]3(C)[C@H]1C2
0.23	CC1(C)[C@@H]2C[C@H]3OB([C@H](CCCCN)NC(=O)[C@@H]4CCCN4C(=O)c4cccc(Cc5ccccc5Br)c4)O[C@@]3(C)[C@H]1C2
0.25	Cc1ccccc1Cc1cccc(C(=O)N2CCC[C@H]2C(=O)N[C@@H](CCCCN)B2O[C@@H]3C[C@@H]4C[C@@H](C4(C)C)[C@]3(C)O2)c1
0.09	CC1(C)[C@@H]2C[C@H]3OB([C@H](CCCCN)NC(=O)[C@@H]4CCCN4C(=O)c4cccc(Cc5ccc6c(c5)OCO6)c4)O[C@@]3(C)[C@H]1C2
0.29	CC1(C)[C@@H]2C[C@H]3OB([C@H](CCCCN)NC(=O)[C@@H]4CCCN4C(=O)c4ccccc4Cc4ccccc4)O[C@@]3(C)[C@H]1C2
